Test results from the supplement of paper PMC6045584.
± gives the standard deviation of the averaged measurements.

These test systems were tested with T1, CC[C@@]1(O)C(=O)OCc2c1cc1n(c2=O)Cc2cc3ccccc3nc2-1 [CAMPTOTHECIN] (assay: area under dose-response curve of surviving fraction (unscaled, Aref=0) (surviving fraction x log10(nM)); higher = more resistant). Conditions: exposure time: 5 days; dose range 0.5-1000 nM.
Procedure, shortened: (§1)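 Inhibitor was applied to tumour cell lines at eight concentrations (0.5 to 1000 nM) for five days in 384-well plates. Luminescence from CellTiter-Glo, scaled to DMSO-only wells, gave surviving fractions in three screens per line, and these were fitted by 3-parameter logistic regression with the drc R package. The area under the curve is an unscaled activity area. Aref was 0, and dose was on a log10 scale.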

Row | Test System | area under dose-response curve
1 | HCT15 LARGE INTESTINE | 0.543
2 | HELA CERVIX | 1.99
3 | KPD BONE | 1.2
4 | MCF7 BREAST | 1.55
5 | PCI30 HEADNECK | 1.92

The test systems below were run with T2, COc1cc2ncnc(Nc3ccc(F)c(Cl)c3)c2cc1OCCCN1CCOCC1 [GEFITINIB] in the same assay as above. Conditions: exposure time: 5 days; dose range 0.5-1000 nM.
Procedure, shortened: as §1

Row | Test System | area under dose-response curve
6 | HCT15 LARGE INTESTINE | 3.44
7 | HELA CERVIX | 3.66
8 | KPD BONE | 3.15
9 | MCF7 BREAST | 3.14
10 | PCI30 HEADNECK | 2.84

The test systems below were run with COCC[n+]1c2c(n(Cc3cnccn3)c1C)C(=O)c1ccccc1C2=O [YM155] in the same assay as above. Conditions: exposure time: 5 days; dose range 0.5-1000 nM.
Procedure, shortened: as §1

Row | Test System | area under dose-response curve
11 | HCT15 LARGE INTESTINE | 2.03
12 | HELA CERVIX | 1.07
13 | KPD BONE | 1.1
14 | MCF7 BREAST | 1.18
15 | PCI30 HEADNECK | 1.32

The test systems below were run with Cc1ccc(-c2cc(C(F)(F)F)nn2-c2ccc(S(N)(=O)=O)cc2)cc1 [CELECOXIB] in the same assay as above. Conditions: exposure time: 5 days; dose range 0.5-1000 nM.
Procedure, shortened: as §1

Row | Test System | area under dose-response curve
16 | HCT15 LARGE INTESTINE | 3.49
17 | HELA CERVIX | 3.64
18 | KPD BONE | 3.48
19 | MCF7 BREAST | 3.11
20 | PCI30 HEADNECK | 3.38

Each test system was assayed with C[C@]1(O)C[C@@H](c2nc(-c3ccc4ccc(-c5ccccc5)nc4c3)c3c(N)nccn32)C1 [OSI-906] in the same assay as above. Conditions: exposure time: 5 days; dose range 0.5-1000 nM.
Procedure, shortened: as §1

Row | Test System | area under dose-response curve
21 | HCT15 LARGE INTESTINE | 2.9
22 | HELA CERVIX | 3.27
23 | KPD BONE | 2.38
24 | MCF7 BREAST | 2.69
25 | PCI30 HEADNECK | 3.26

These test systems were tested with CC(=O)O[C@H]1C(=O)[C@@]2(C)[C@H]([C@H](OC(=O)c3ccccc3)[C@]3(O)C[C@H](OC(=O)[C@H](O)[C@@H](NC(=O)c4ccccc4)c4ccccc4)C(C)=C1C3(C)C)[C@]1(OC(C)=O)CO[C@@H]1C[C@@H]2O [PACLITAXEL] in the same assay as above. Conditions: exposure time: 5 days; dose range 0.5-1000 nM.
Procedure, shortened: as §1

Row | Test System | area under dose-response curve
26 | HCT15 LARGE INTESTINE | 1.76
27 | HELA CERVIX | 0.718
28 | KPD BONE | 1.47
29 | MCF7 BREAST | 1.43
30 | PCI30 HEADNECK | 0.529

These test systems were tested with CC(=O)NCC(=O)N1[C@@H]2CC[C@H]1c1ccc(Nc3ncc(C(F)(F)F)c(NC4CCC4)n3)cc12 in the same assay as above. Conditions: exposure time: 5 days; dose range 0.5-1000 nM.
Procedure, shortened: as §1

Row | Test System | area under dose-response curve
31 | HCT15 LARGE INTESTINE | 2.05
32 | HELA CERVIX | 2.21
33 | KPD BONE | 2.67
34 | MCF7 BREAST | 2.53
35 | PCI30 HEADNECK | 2.81

Each test system was assayed with CC(=O)c1c(C)c2cnc(Nc3ccc(N4CCNCC4)cn3)nc2n(C2CCCC2)c1=O in the same assay as above. Conditions: exposure time: 5 days; dose range 0.5-1000 nM.
Procedure, shortened: as §1

Row | Test System | area under dose-response curve
36 | HCT15 LARGE INTESTINE | 3.59
37 | HELA CERVIX | 3.5
38 | KPD BONE | 3.15
39 | MCF7 BREAST | 3.03
40 | PCI30 HEADNECK | 3.11

Each test system was assayed with O=C(O)C1(C(=O)O)CCC1.[NH2-].[NH2-].[Pt+2] [CARBOPLATIN] in the same assay as above. Conditions: exposure time: 5 days; dose range 0.5-1000 nM.
Procedure, shortened: as §1

Row | Test System | area under dose-response curve
41 | HCT15 LARGE INTESTINE | 3.51
42 | HELA CERVIX | 3.53
43 | KPD BONE | 3.52
44 | MCF7 BREAST | 3.08
45 | PCI30 HEADNECK | 3.57

What follows are test systems tested with T1, CAMPTOTHECIN (assay: surviving fraction relative to DMSO-only wells; higher = less growth inhibition). Conditions: 0.5 nM; exposure time: 5 days.
Procedure, shortened: (§2)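 Lines were retained only if, across three screens, replicate Pearson r was >0.7 and median Z' was >0.3. Viability was measured as CellTiter-Glo luminescence and reported as surviving fraction relative to the median of DMSO-only wells. Readings followed 10 minutes at room temperature, after log-phase tumour cells seeded at 250–500 per well in 384-well plates had been exposed, from 24 hours after seeding, continuously for five days to inhibitors at 0.5, 1, 5, 10, 50, 100, 500 and 1000 nM.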

Row | Test System | surviving fraction
46 | HCT15 LARGE INTESTINE | 0.33 ± 0.031
47 | HELA CERVIX | 0.934 ± 0.062
48 | KPD BONE | 0.886 ± 0.02
49 | MCF7 BREAST | 0.731 ± 0.032
50 | PCI30 HEADNECK | 0.908 ± 0.043

Same assay, conditions: 1 nM; exposure time: 5 days

Row | Test System | surviving fraction
51 | HCT15 LARGE INTESTINE | 0.779 ± 0.041
52 | HELA CERVIX | 0.937 ± 0.044
53 | KPD BONE | 0.856 ± 0.041
54 | MCF7 BREAST | 0.824 ± 0.025
55 | PCI30 HEADNECK | 0.912 ± 0.056

Same assay, conditions: 5 nM; exposure time: 5 days

Row | Test System | surviving fraction
56 | HCT15 LARGE INTESTINE | 0.232 ± 0.083
57 | HELA CERVIX | 0.967 ± 0.04
58 | KPD BONE | 0.509 ± 0.0098
59 | MCF7 BREAST | 0.696 ± 0.079
60 | PCI30 HEADNECK | 0.857 ± 0.024

Same assay, conditions: 10 nM; exposure time: 5 days

Row | Test System | surviving fraction
61 | HCT15 LARGE INTESTINE | 0.0333 ± 0.0047
62 | HELA CERVIX | 1.06 ± 0.014
63 | KPD BONE | 0.327 ± 0.004
64 | MCF7 BREAST | 0.556 ± 0.01
65 | PCI30 HEADNECK | 0.497 ± 0.026

Same assay, conditions: 50 nM; exposure time: 5 days

Row | Test System | surviving fraction
66 | HCT15 LARGE INTESTINE | 0.0227 ± 0.0038
67 | HELA CERVIX | 0.253 ± 0.019
68 | KPD BONE | 0.29 ± 0.015
69 | MCF7 BREAST | 0.39 ± 0.0082
70 | PCI30 HEADNECK | 0.437 ± 0.034

Same assay, conditions: 100 nM; exposure time: 5 days

Row | Test System | surviving fraction
71 | HCT15 LARGE INTESTINE | 0.0337 ± 0.0038
72 | HELA CERVIX | 0.373 ± 0.02
73 | KPD BONE | 0.15 ± 0.016
74 | MCF7 BREAST | 0.354 ± 0.011
75 | PCI30 HEADNECK | 0.487 ± 0.027

Same assay, conditions: 500 nM; exposure time: 5 days

Row | Test System | surviving fraction
76 | HCT15 LARGE INTESTINE | 0.0207 ± 0.0021
77 | HELA CERVIX | 0.0667 ± 0.0072
78 | KPD BONE | 0.041 ± 0.0027
79 | MCF7 BREAST | 0.0642 ± 0.0025
80 | PCI30 HEADNECK | 0.356 ± 0.015

Same assay, conditions: 1000 nM; exposure time: 5 days

Row | Test System | surviving fraction
81 | HCT15 LARGE INTESTINE | 0.0277 ± 0.0038
82 | HELA CERVIX | 0.0348 ± 0.0013
83 | KPD BONE | 0.0363 ± 0.0045
84 | MCF7 BREAST | 0.0648 ± 0.0052
85 | PCI30 HEADNECK | 0.264 ± 0.015

The test systems below were run with T2, GEFITINIB in the same assay as above. Conditions: 0.5 nM; exposure time: 5 days.
Procedure, shortened: as §2

Row | Test System | surviving fraction
86 | HCT15 LARGE INTESTINE | 1.05 ± 0.033
87 | HELA CERVIX | 1.07 ± 0.044
88 | KPD BONE | 0.994 ± 0.06
89 | MCF7 BREAST | 0.935 ± 0.02
90 | PCI30 HEADNECK | 0.996 ± 0.063

Same assay, conditions: 1 nM; exposure time: 5 days

Row | Test System | surviving fraction
91 | HCT15 LARGE INTESTINE | 1.04 ± 0.017
92 | HELA CERVIX | 1.05 ± 0.019
93 | KPD BONE | 1.01 ± 0.04
94 | MCF7 BREAST | 0.921 ± 0.032
95 | PCI30 HEADNECK | 1.01 ± 0.051

Same assay, conditions: 5 nM; exposure time: 5 days

Row | Test System | surviving fraction
96 | HCT15 LARGE INTESTINE | 0.982 ± 0.025
97 | HELA CERVIX | 1.106 ± 0.0031
98 | KPD BONE | 0.84 ± 0.36
99 | MCF7 BREAST | 0.924 ± 0.042
100 | PCI30 HEADNECK | 1.071 ± 0.0044

Same assay, conditions: 10 nM; exposure time: 5 days

Row | Test System | surviving fraction
101 | HCT15 LARGE INTESTINE | 1.04 ± 0.054
